Data reported in ChEMBL document CHEMBL3046396, “Synthesis and insecticidal evaluation of N-tert-butyl-N'-thio[1-(6-chloro-3-pyridylmethyl)-2-nitroiminoimidazolidine]-N,N'-diacylhydrazines” (2010).
The source made the active and inactive calls. The rule behind the calls is not given here.

Tests used:
[1] = test system: Mythimna separata; test: Larvicidal activity against fourth-instar larval stage of Mythimna separata (Oriental armyworm) in compound-pretreated corn leaves assessed as mortality at 25 mg/l after 4 days; assay type: functional
[2] = test system: Mythimna separata; test: Larvicidal activity against fourth-instar larval stage of Mythimna separata (Oriental armyworm) in compound-pretreated corn leaves assessed as mortality at 50 mg/l after 4 days; assay type: functional
[3] = test system: Mythimna separata; test: Larvicidal activity against fourth-instar larval stage of Mythimna separata (Oriental armyworm) in compound-pretreated corn leaves assessed as mortality at 10 mg/l after 4 days; assay type: functional
[4] = test system: Aphis fabae; test: Insecticidal activity against apterous adult stage of Aphis fabae ( black bean aphids) in soybean tender shoots assessed as death rate at 200 mg/l treated for 5 secs measured after 48 hr by modified FAO dip test; assay type: functional
[5] = test system: Aphis fabae; test: Insecticidal activity against apterous adult stage of Aphis fabae (black bean aphids) in soybean tender shoots assessed as induction of premature, abnormal and lethal larva moult at 10 mg/l treated for 5 secs measured after 3 days by modified FAO dip test; assay type: functional, organism-based
[6] = test system: Mythimna separata; test: Larvicidal activity against fourth-instar larval stage of Mythimna separata (Oriental armyworm) in compound-pretreated corn leaves assessed as mortality at 500 mg/l after 4 days; assay type: functional
[7] = test system: Mythimna separata; test: Larvicidal activity against fourth-instar larval stage of Mythimna separata (Oriental armyworm) in compound-pretreated corn leaves assessed as mortality at 200 mg/l after 4 days; assay type: functional
[8] = test system: Aphis fabae; test: Insecticidal activity against apterous adult stage of Aphis fabae (black bean aphids) in soybean tender shoots assessed as mortality at 200 mg/l treated for 5 secs measured after 2 hr by modified FAO dip test; assay type: functional, organism-based
[9] = test system: Mythimna separata; test: Larvicidal activity against fourth-instar larval stage of Mythimna separata (Oriental armyworm) in compound-pretreated corn leaves assessed as mortality at 100 mg/l after 4 days; assay type: functional
[10] = test system: Mythimna separata; test: Larvicidal activity against fourth-instar larval stage of Mythimna separata (Oriental armyworm) in compound-pretreated corn leaves assessed as mortality at 5 mg/l after 4 days; assay type: functional

CC(C)(C)N(NC(=O)c1ccccc1)C(=O)c1ccccc1 [RH-5849]
mortality at 25 µg/mL [1]: 70% | mortality at 50 µg/mL [2]: 100% | mortality at 10 µg/mL [3]: 0% | Activity [4]: 0% | Activity [5]: Active

COc1ccc(C(=O)N(NC(=O)c2ccccc2)C(C)(C)C)cc1
mortality at 500 µg/mL [6]: 60% | Activity [4]: 0% | mortality at 200 µg/mL [7]: 0% | Activity [5]: Active

Cc1cc(C)cc(C(=O)N(NC(=O)c2ccccc2)C(C)(C)C)c1
mortality at 25 µg/mL [1]: 60% | mortality at 50 µg/mL [2]: 100% | mortality at 10 µg/mL [3]: 10% | Activity [4]: 12% | Activity [5]: Active

CC(C)(C)N(C(=O)c1ccccc1Cl)N(SN1CCN(Cc2ccc(Cl)nc2)/C1=N/[N+](=O)[O-])C(=O)c1ccccc1
mortality at 500 µg/mL [6]: 100% | Activity [8]: Active | mortality at 25 µg/mL [1]: 10% | mortality at 50 µg/mL [2]: 30% | mortality at 10 µg/mL [3]: 0% | Activity [4]: 84% | mortality at 200 µg/mL [7]: 60% | Activity [5]: Active | mortality at 100 µg/mL [9]: 50%

Cc1cc(C)cc(C(=O)NN(C(=O)c2cc(C)cc(C)c2)C(C)(C)C)c1
mortality at 25 µg/mL [1]: 70% | mortality at 50 µg/mL [2]: 95% | mortality at 10 µg/mL [3]: 10% | Activity [4]: 10% | Activity [5]: Active

COc1ccc(C(=O)N(SN2CCN(Cc3ccc(Cl)nc3)/C2=N/[N+](=O)[O-])N(C(=O)c2ccc(OC)cc2)C(C)(C)C)cc1
mortality at 500 µg/mL [6]: 100% | Activity [8]: Active | mortality at 50 µg/mL [2]: 0% | Activity [4]: 87% | mortality at 200 µg/mL [7]: 70% | Activity [5]: Active | mortality at 100 µg/mL [9]: 40%

COc1ccccc1C(=O)N(NC(=O)c1ccccc1)C(C)(C)C
mortality at 25 µg/mL [1]: 90% | mortality at 50 µg/mL [2]: 100% | mortality at 10 µg/mL [3]: 10% | Activity [4]: 32% | mortality at 5 µg/mL [10]: 0% | Activity [5]: Active

CC(C)(C)N(NC(=O)c1ccccc1)C(=O)c1ccccc1Cl
mortality at 25 µg/mL [1]: 90% | mortality at 50 µg/mL [2]: 100% | mortality at 10 µg/mL [3]: 75% | Activity [4]: 18% | mortality at 5 µg/mL [10]: 0% | Activity [5]: Active

Cc1cc(C)cc(C(=O)N(N(SN2CCN(Cc3ccc(Cl)nc3)/C2=N/[N+](=O)[O-])C(=O)c2ccccc2)C(C)(C)C)c1
mortality at 500 µg/mL [6]: 95% | Activity [8]: Active | mortality at 25 µg/mL [1]: 0% | mortality at 50 µg/mL [2]: 10% | Activity [4]: 80% | mortality at 200 µg/mL [7]: 85% | Activity [5]: Active | mortality at 100 µg/mL [9]: 55%

CCc1ccc(C(=O)NN(C(=O)c2cc(C)cc(C)c2)C(C)(C)C)cc1 [TEBUFENOZIDE]
mortality at 10 µg/mL [3]: 100% | Activity [4]: 0% | mortality at 5 µg/mL [10]: 70% | Activity [5]: Active

COc1ccccc1C(=O)N(SN1CCN(Cc2ccc(Cl)nc2)/C1=N/[N+](=O)[O-])N(C(=O)c1ccccc1OC)C(C)(C)C
mortality at 500 µg/mL [6]: 80% | Activity [8]: Active | mortality at 25 µg/mL [1]: 0% | mortality at 50 µg/mL [2]: 10% | Activity [4]: 91% | mortality at 200 µg/mL [7]: 70% | Activity [5]: Active | mortality at 100 µg/mL [9]: 40%

COc1ccccc1C(=O)N(N(SN1CCN(Cc2ccc(Cl)nc2)/C1=N/[N+](=O)[O-])C(=O)c1ccccc1)C(C)(C)C
mortality at 500 µg/mL [6]: 90% | Activity [8]: Active | mortality at 50 µg/mL [2]: 0% | Activity [4]: 92% | mortality at 200 µg/mL [7]: 40% | Activity [5]: Active | mortality at 100 µg/mL [9]: 20%

CC(C)(C)N(C(=O)c1cccc(Cl)c1)N(SN1CCN(Cc2ccc(Cl)nc2)/C1=N/[N+](=O)[O-])C(=O)c1ccccc1
mortality at 500 µg/mL [6]: 100% | Activity [8]: Active | mortality at 25 µg/mL [1]: 0% | mortality at 50 µg/mL [2]: 25% | Activity [4]: 86% | mortality at 200 µg/mL [7]: 80% | Activity [5]: Active | mortality at 100 µg/mL [9]: 70%

CCc1ccc(C(=O)N(SN2CCN(Cc3ccc(Cl)nc3)/C2=N/[N+](=O)[O-])N(C(=O)c2cc(C)cc(C)c2)C(C)(C)C)cc1
Activity [8]: Active | mortality at 25 µg/mL [1]: 100% | mortality at 50 µg/mL [2]: 100% | mortality at 10 µg/mL [3]: 90% | Activity [4]: 53% | mortality at 5 µg/mL [10]: 70% | Activity [5]: Active

CC(C)(C)N(NC(=O)c1ccccc1)C(=O)c1ccc(Cl)cc1
mortality at 25 µg/mL [1]: 100% | mortality at 50 µg/mL [2]: 100% | mortality at 10 µg/mL [3]: 25% | Activity [4]: 26% | mortality at 5 µg/mL [10]: 0% | Activity [5]: Active

COc1ccccc1C(=O)NN(C(=O)c1ccccc1OC)C(C)(C)C
mortality at 500 µg/mL [6]: 10% | Activity [4]: 0% | mortality at 200 µg/mL [7]: 70% | Activity [5]: Active

O=[N+]([O-])/N=C1\NCCN1Cc1ccc(Cl)nc1 [IMIDACLOPRID]
Activity [8]: Active | mortality at 25 µg/mL [1]: 20% | mortality at 50 µg/mL [2]: 30% | mortality at 10 µg/mL [3]: 10% | Activity [4]: 100% | mortality at 200 µg/mL [7]: 100% | mortality at 100 µg/mL [9]: 60%

CC(C)(C)N(C(=O)c1ccccc1)N(SN1CCN(Cc2ccc(Cl)nc2)/C1=N/[N+](=O)[O-])C(=O)c1ccccc1
mortality at 500 µg/mL [6]: 100% | Activity [8]: Active | Activity [4]: 100% | mortality at 200 µg/mL [7]: 80% | Activity [5]: Active | mortality at 100 µg/mL [9]: 0%

Cc1cc(C)cc(C(=O)N(SN2CCN(Cc3ccc(Cl)nc3)/C2=N/[N+](=O)[O-])N(C(=O)c2cc(C)cc(C)c2)C(C)(C)C)c1
mortality at 500 µg/mL [6]: 100% | Activity [8]: Active | mortality at 25 µg/mL [1]: 10% | mortality at 50 µg/mL [2]: 25% | mortality at 10 µg/mL [3]: 0% | Activity [4]: 89% | mortality at 200 µg/mL [7]: 70% | Activity [5]: Active | mortality at 100 µg/mL [9]: 50%

CC(C)(C)N(C(=O)c1ccc(Cl)cc1)N(SN1CCN(Cc2ccc(Cl)nc2)/C1=N/[N+](=O)[O-])C(=O)c1ccccc1
mortality at 500 µg/mL [6]: 100% | Activity [8]: Active | mortality at 25 µg/mL [1]: 0% | mortality at 50 µg/mL [2]: 40% | Activity [4]: 87% | mortality at 200 µg/mL [7]: 80% | Activity [5]: Active | mortality at 100 µg/mL [9]: 70%

COc1ccc(C(=O)NN(C(=O)c2ccc(OC)cc2)C(C)(C)C)cc1
mortality at 500 µg/mL [6]: 95% | mortality at 50 µg/mL [2]: 0% | Activity [4]: 22% | mortality at 200 µg/mL [7]: 40% | Activity [5]: Active | mortality at 100 µg/mL [9]: 10%

CC(C)(C)N(NC(=O)c1ccccc1)C(=O)c1cccc(Cl)c1
mortality at 25 µg/mL [1]: 45% | mortality at 50 µg/mL [2]: 95% | mortality at 10 µg/mL [3]: 0% | Activity [4]: 12% | Activity [5]: Active | mortality at 100 µg/mL [9]: 100%

COc1ccc(C(=O)N(N(SN2CCN(Cc3ccc(Cl)nc3)/C2=N/[N+](=O)[O-])C(=O)c2ccccc2)C(C)(C)C)cc1
mortality at 500 µg/mL [6]: 80% | Activity [8]: Active | mortality at 50 µg/mL [2]: 0% | Activity [4]: 95% | mortality at 200 µg/mL [7]: 70% | Activity [5]: Active | mortality at 100 µg/mL [9]: 20%
